From US9566312B2, “Cyclic peptides and use as medicines” (priority 2012, dated 2017)
Like-named read-outs stand apart in the source and are kept apart here. Starred links: 1 amine or outer side, 2 acyl side, 3 side chain; linkers in the order of their positions; H or OH if unused. Non-standard residues stand in square brackets, D forms with d. Residues, ends and D or L forms follow the SMILES beside them. X16 = C[C@H](CN1CCN(S(C)(=O)=O)CC1)[C@@H](C(=O)[*:2])N(C)[*:1]; X7 = C[C@H](COCCN1CCS(=O)(=O)CC1)[C@@H](C(=O)[*:2])N(C)[*:1]; X4 = C[C@H](CS(C)(=O)=O)[C@@H](C(=O)[*:2])N(C)[*:1]; MeBmt = C/C=C/C[C@@H](C)[C@@H](O)[C@H](NC)C(=O)O; X2 = COCC[C@@H](C)[C@@H](C(=O)[*:2])N(C)[*:1]; X77 = COC[C@H](C)[C@@H](C(=O)[*:2])N(C)[*:1]; NMeL = CN[C@@H](CC(C)C)C(=O)O; NMeV = CN[C@H](C(=O)O)C(C)C; dNMeA = CN[C@H](C)C(=O)O; Abu = CC[C@H](N)C(=O)O

What was measured:
[1] = target: cyclophilin A (CypA) (Homo sapiens (Human), UniProt P62937); assay: Inhibitor binding to cyclophilin proteins by SPR, CypA; set-up: unit not given here; settings: 1:1 binding model;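 also: Single-cycle kinetics on a Biacore T200, compound injected at several concentrations for 1 min each at 50 µL/min, then 10 min dissociation, in HEPES pH 7.4 buffer with 3% DMSO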
[2] = target: cyclophilin B (CypB) (Homo sapiens (Human), UniProt P23284); assay: Inhibitor binding to cyclophilin proteins by SPR, CypB; set-up: unit not given here; settings: 1:1 binding model
Procedure, shortened: (§1)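 Running buffer: 10 mM HEPES pH 7.4, 150 mM NaCl, 0.05% P20, 3% DMSO, with compound present. Capture of avi-tagged mono-biotinylated cyclophilin; single-cycle series, 1 min contact, 10 min dissociation. Rates and affinity fitted to a 1:1 interaction model.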

[3] = target: CypF (Homo sapiens (Human), UniProt P30405); assay: Inhibitor binding to cyclophilin proteins by SPR, CypF; settings: 1:1 binding model
Procedure, shortened: as §1

[4] = target: Human MRP2 (Homo sapiens (Human), UniProt Q92887); assay: MRP2 transporter vesicle assay; type: in vitro ADME
Method: Method 4: Measuring Hepatic Transporter Interactions […] […] MRP2 Assay: Human MRP2 inhibition was tested using a BD Gentest Transporter Vesicle Assay Kit. Inside-out vesicles were prepared from insect Sf9 cells infected with baculovirus expressing hMRP2. […] The percent remaining of ATP dependent uptake activity was calculated as uptake activity in the presence of inhibitor divided by the uptake activity in the absence of inhibitor.

[5] = target: organic anion transporting polypeptide 1B1 (OATP1B1) (Homo sapiens (Human), UniProt Q9Y6L6); assay: OATP assay in CHO-OATP1B1 cells;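 also: inhibition of probe substrate uptake into the cells, ten minutes exposure, accumulated substrate read by fluorescence once cells were lysed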
Method: In order to determine whether the compounds of the present invention interact with hepatic transporters, experiments were carried out that compared the concentration-dependent inhibition toward the organic anion transporting polypeptide 1B1 (OATP1B1) and the multidrug resistance associated protein 2 (MRP2).
The cells were cultured in DMEM/F12 +10% FBS+2 mM Ala-Gln+1% Pen-Strep for a period of two days, and the media was changed one day post-seeding. Prior to the assay, media was aspirated and were washed −3× with HBSS+10 mM HEPES and the solution was equilibrated for 15 min in HBSS+10 mM HEPES. Solutions containing the inhibitor were prepared in HBSS+10 mM HEPES (up to 1% DMSO). […] After 10 min, the substrate or substrate/inhibitor solution was aspirated and the cells were washed 3× with HBSS+10 mM HEPES. The amount of the transported probe substrate was determined by fluorescent photometry after cell lysis, and the IC50 was derived from the concentration-response curve.

[6] = tested on: genotype 1b subgenomic HCV replicon in Huh7.5 cells; type: cell-based, hepatitis C virus; settings: read-out: RPLN-1b IC50
Procedure, shortened: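 Replicon inhibition read as renilla luciferase signal versus DMSO controls after 72 h incubation, in Huh7.5 cells harbouring a genotype 1b subgenomic replicon; medium phenol red-free DMEM lacking G418. CC50 determined in parallel via Cell Titer-Glo.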

[7] = tested on: peripheral blood mononuclear cells (PBMC); assay: Anti-proliferative or immunosuppressive activity, BrdU incorporation in PHA-stimulated PBMC; type: cell-based; settings: PHA 3 μg/ml, 60 hour compound treatment; read-out: EMV PBMC IC50
Procedure, shortened: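 BrdU ELISA read-out of DNA synthesis in freshly isolated PBMCs (two donors, 30,000 cells/well, X-VIVO 15). T-cell proliferation triggered with phytohemagglutinin at 3 μg/ml.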

[8] = target: CYP3A4 (Homo sapiens (Human), UniProt P08684); assay: Time-dependent inhibition of CYP3A4;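 also: Two-step in vitro assay, kobs derived from residual CYP3A4 activity versus preincubation time per concentration, then kinact and KI by nonlinear fit of kobs against concentration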
[9] = genotype 1b replicon, 72 h incubation

Chain of cyclophilin B (CypB) (P23284 34-216): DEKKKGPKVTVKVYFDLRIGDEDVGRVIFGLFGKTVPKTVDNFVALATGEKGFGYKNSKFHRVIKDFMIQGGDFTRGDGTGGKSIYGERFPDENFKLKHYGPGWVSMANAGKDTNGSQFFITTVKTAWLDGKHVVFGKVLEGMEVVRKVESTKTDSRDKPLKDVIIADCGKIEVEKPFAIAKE
Chain of CypF (P30405 30-207): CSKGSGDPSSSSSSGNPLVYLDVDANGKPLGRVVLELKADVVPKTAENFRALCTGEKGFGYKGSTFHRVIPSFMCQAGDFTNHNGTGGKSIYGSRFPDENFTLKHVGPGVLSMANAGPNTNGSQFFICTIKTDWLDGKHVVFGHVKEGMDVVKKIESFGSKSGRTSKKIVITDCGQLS
Chain of Human MRP2 (Q92887 whole entry): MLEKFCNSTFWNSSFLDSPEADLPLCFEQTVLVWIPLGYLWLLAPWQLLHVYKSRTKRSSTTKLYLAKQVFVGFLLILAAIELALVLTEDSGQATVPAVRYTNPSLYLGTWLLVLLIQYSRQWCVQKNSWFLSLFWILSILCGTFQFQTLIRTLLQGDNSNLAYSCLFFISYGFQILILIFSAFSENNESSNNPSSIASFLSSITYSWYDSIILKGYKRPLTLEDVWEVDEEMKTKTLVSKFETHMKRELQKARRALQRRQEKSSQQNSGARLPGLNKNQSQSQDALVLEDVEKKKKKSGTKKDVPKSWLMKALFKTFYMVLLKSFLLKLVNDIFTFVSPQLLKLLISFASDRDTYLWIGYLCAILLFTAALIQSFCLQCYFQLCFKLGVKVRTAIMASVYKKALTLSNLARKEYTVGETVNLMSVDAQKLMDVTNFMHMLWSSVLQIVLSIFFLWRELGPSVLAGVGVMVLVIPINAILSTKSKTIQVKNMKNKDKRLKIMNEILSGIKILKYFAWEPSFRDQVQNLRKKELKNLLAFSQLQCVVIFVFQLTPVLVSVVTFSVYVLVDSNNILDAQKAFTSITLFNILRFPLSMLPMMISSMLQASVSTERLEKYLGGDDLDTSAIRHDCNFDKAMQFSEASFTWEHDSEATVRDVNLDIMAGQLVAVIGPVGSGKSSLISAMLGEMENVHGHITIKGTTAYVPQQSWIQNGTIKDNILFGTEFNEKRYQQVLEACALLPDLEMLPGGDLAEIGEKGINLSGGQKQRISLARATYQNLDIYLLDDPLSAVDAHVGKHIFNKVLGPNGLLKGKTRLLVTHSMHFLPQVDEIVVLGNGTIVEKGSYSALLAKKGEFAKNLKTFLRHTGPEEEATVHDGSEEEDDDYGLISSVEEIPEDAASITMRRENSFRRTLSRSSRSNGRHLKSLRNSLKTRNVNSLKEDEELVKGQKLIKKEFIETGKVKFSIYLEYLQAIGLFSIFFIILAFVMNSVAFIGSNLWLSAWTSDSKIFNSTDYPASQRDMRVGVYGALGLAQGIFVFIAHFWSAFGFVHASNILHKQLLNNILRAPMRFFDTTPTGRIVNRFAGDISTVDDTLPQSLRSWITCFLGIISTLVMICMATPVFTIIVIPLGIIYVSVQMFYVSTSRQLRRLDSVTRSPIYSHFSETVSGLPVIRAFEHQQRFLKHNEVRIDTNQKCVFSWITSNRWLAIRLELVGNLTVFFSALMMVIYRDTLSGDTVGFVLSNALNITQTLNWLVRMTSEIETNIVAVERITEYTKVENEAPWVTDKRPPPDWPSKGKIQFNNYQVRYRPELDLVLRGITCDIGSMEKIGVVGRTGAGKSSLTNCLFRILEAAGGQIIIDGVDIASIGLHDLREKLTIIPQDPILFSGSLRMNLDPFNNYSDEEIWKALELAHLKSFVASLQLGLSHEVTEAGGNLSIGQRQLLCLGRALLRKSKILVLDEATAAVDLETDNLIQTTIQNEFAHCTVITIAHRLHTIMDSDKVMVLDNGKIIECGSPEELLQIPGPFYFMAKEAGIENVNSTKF
Chain of CYP3A4 (P08684 whole entry): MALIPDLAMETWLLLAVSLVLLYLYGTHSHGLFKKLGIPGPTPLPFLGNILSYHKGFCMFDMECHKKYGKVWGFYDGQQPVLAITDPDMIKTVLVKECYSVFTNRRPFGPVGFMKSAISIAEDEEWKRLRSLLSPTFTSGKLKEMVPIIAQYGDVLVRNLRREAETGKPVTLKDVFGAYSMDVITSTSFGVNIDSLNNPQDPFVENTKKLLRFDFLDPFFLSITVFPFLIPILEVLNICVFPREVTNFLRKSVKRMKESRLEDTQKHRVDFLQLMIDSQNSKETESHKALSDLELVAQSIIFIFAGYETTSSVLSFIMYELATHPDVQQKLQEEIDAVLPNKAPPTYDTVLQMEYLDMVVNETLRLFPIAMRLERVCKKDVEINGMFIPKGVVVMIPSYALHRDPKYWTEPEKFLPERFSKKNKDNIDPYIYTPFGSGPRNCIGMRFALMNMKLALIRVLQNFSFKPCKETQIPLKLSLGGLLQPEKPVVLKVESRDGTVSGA
Chain of organic anion transporting polypeptide 1B1 (OATP1B1) (Q9Y6L6 whole entry): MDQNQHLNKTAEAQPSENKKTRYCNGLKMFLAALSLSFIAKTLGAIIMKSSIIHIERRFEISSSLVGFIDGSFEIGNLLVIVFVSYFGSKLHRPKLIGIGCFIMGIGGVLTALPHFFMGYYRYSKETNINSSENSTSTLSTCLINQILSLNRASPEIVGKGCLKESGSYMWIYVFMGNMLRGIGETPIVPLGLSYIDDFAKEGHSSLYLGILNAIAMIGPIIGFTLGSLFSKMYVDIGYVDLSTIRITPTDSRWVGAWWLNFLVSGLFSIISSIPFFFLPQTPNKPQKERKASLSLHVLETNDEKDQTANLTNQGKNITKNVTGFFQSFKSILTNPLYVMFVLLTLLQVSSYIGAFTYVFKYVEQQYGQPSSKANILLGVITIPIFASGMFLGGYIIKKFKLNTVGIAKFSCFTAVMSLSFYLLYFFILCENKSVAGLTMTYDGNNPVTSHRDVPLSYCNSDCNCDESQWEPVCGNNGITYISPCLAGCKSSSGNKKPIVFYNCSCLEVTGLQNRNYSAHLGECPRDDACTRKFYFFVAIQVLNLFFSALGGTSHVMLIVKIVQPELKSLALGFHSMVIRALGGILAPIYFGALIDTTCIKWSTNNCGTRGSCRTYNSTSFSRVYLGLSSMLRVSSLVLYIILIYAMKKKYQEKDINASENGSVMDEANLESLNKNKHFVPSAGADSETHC
Chain of cyclophilin A (CypA) (P62937 whole entry): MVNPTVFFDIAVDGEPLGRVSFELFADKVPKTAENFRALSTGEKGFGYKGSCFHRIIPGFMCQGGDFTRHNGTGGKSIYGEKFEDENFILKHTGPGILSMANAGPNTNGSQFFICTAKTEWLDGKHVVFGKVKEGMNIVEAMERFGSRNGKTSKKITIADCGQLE

| Structure (SMILES) | CypA Kd [1] | CypB Kd [2] | CypF Kd [3] | IC50 [4] | IC50 [5] | IC50 [6, 9] | IC50 [7] | Ki [8] | IC50 [6] | NIM TDI kinact/Ki ([8]; probe substrate midazolam) |
| --- | --- | --- | --- | --- | --- | --- | --- | --- | --- | --- |
| C/C=C/C[C@@H](C)[C@@H](O)[C@H]1C(=O)N[C@@H](CC)C(=O)N(C)[C@H](C)C(=O)N(C)[C@@H]([C@H](C)COCCN2CCS(=O)(=O)CC2)C(=O)N[C@@H](C(C)C)C(=O)N(C)[C@@H](CC(C)C)C(=O)N[C@@H](C)C(=O)N[C@H](C)C(=O)N(C)[C@@H](CC(C)C)C(=O)N(C)[C@@H](CC(C)C)C(=O)N(C)[C@@H](C(C)C)C(=O)N1C [Compound 2.8.2] (cyclo(A[dA][NMeL][NMeL][NMeV][MeBmt][Abu][dNMeA][X7]V[NMeL])) | 1.6 | 0.6 | 0.6 nM | 28000 nM | 3000 nM | – | – | – | – | – |
| C/C=C/C[C@@H](C)[C@@H](O)[C@H]1C(=O)N[C@@H](CC)C(=O)N(C)[C@H](C)C(=O)N(C)[C@@H]([C@H](C)COCCOC(=O)N2CCN(C)CC2)C(=O)N[C@@H](C(C)C)C(=O)N(C)[C@@H](CC(C)C)C(=O)N[C@@H](C)C(=O)N[C@H](C)C(=O)N(C)[C@@H](CC(C)C)C(=O)N(C)[C@@H](CC(C)C)C(=O)N(C)[C@@H](C(C)C)C(=O)N1C (stereo in doubt) [Compound 2.9, 3-[D-Ala]-4-[(2S,3S)-3-methyl-2-(methylamino)-4-(2-((4-methylpiperazine-1-carbonyl)oxy)ethoxy)butanoyl]-cyclosporin] | 0.9 | 0.5 | 0.4 nM | 30000 nM | 8700 nM | 58 nM | 13300 nM | > 50000 nM | – | – |
| C/C=C/C[C@@H](C)[C@@H](O)[C@H]1C(=O)N[C@@H](CC)C(=O)N(C)[C@H](C)C(=O)N(C)[C@@H]([C@H](C)CS(C)(=O)=O)C(=O)N[C@@H](C(C)C)C(=O)N(C)[C@@H](CC(C)C)C(=O)N[C@@H](C)C(=O)N[C@H](C)C(=O)N(C)[C@@H](CC(C)C)C(=O)N(C)[C@@H](CC(C)C)C(=O)N(C)[C@@H](C(C)C)C(=O)N1C [Compound 2.4, 3-[D-Ala]-4-[(2S,3S)-3-methyl-2-(methylamino)-4-(methylsulfonyl)butanoyl]-cyclosporin] (cyclo(A[dA][NMeL][NMeL][NMeV][MeBmt][Abu][dNMeA][X4]V[NMeL])) | 1.5 | 0.6 | 0.6 nM | 9000 nM | 1400 nM | 95 nM | 1900 nM | > 50000 nM | – | – |
| C/C=C/C[C@@H](C)[C@@H](O)[C@H]1C(=O)N[C@@H](CC)C(=O)N(C)[C@H](C)C(=O)N(C)[C@@H]([C@H](C)CN2CCN(S(C)(=O)=O)CC2)C(=O)N[C@@H](C(C)C)C(=O)N(C)[C@@H](CC(C)C)C(=O)N[C@@H](C)C(=O)N[C@H](C)C(=O)N(C)[C@@H](CC(C)C)C(=O)N(C)[C@@H](CC(C)C)C(=O)N(C)[C@@H](C(C)C)C(=O)N1C [Compound 2.5.5, 3-[D-Ala]-4-[(2S,3R)-3-methyl-2-(methylamino)-4-(4-(methylsulfonyl)piperazin-1-yl)butanoyl]-cyclosporin] (cyclo(A[dA][NMeL][NMeL][NMeV][MeBmt][Abu][dNMeA][X16]V[NMeL])) | 3.3 | 1.9 | 1.7 nM | 13000 nM | 4800 nM | 66 nM | 2800 nM | – | – | – |
| C/C=C/C[C@@H](C)[C@@H](O)[C@H]1C(=O)N[C@@H](CC)C(=O)N(C)[C@H](C)C(=O)N(C)[C@@H]([C@@H](C)COC)C(=O)N[C@@H](C(C)C)C(=O)N(C)[C@@H](CC(C)C)C(=O)N[C@@H](C)C(=O)N[C@H](C)C(=O)N(C)[C@@H](CC(C)C)C(=O)N(C)[C@@H](CC(C)C)C(=O)N(C)[C@@H](C(C)C)C(=O)N1C [Compound 2.2, 3-[D-Ala]-4-[(2S,3R)-4-methoxy-3-methyl-2-(methylamino)butanoyl]-cyclosporin] (cyclo(A[dA][NMeL][NMeL][NMeV][MeBmt][Abu][dNMeA][X77]V[NMeL])) | 1.7 | 0.8 | 0.8 nM | 15000 nM | 1900 nM | – | 12600 nM | – | 48 nM | 5 M⁻¹ s⁻¹ |
| C/C=C/C[C@@H](C)[C@@H](O)[C@H]1C(=O)N[C@@H](CC)C(=O)N(C)[C@H](C)C(=O)N(C)[C@@H]([C@H](C)CCOC)C(=O)N[C@@H](C(C)C)C(=O)N(C)[C@@H](CC(C)C)C(=O)N[C@@H](C)C(=O)N[C@H](C)C(=O)N(C)[C@@H](CC(C)C)C(=O)N(C)[C@@H](CC(C)C)C(=O)N(C)[C@@H](C(C)C)C(=O)N1C [Compound 2.13, 3-[D-Ala]-4-[(2S,3R)-5-methoxy-3-methyl-2-(methylamino)pentanoyl]-cyclosporin] (cyclo(A[dA][NMeL][NMeL][NMeV][MeBmt][Abu][dNMeA][X2]V[NMeL])) | 1.7 | 0.8 | 0.8 nM | 13000 nM | 2300 nM | 41 nM | 2600 nM | > 50000 nM | – | – |
